The numbers were not newly measured in US20020160936A1, “HCV E2 PROTEIN BINDING AGENTS FOR TREATMENT OF HEPATITIS C VIRUS INFECTION” (priority 1999, published 2002), which cites them from elsewhere.

This series concerns hepatitis C virus. The conditions noted are these: subjects with chronic hepatitis C.

Consider interferon-alpha, for which the long-term cure rate entry is “less than 10%”.
